Measurements from ChEMBL document CHEMBL3217717, “Synthesis and antiproliferative activity of novel erythromycin derivatives” (Medchemcomm, 2010).

Tests used:
[1] = Cytotoxicity against human SGC7901 cells assessed as growth inhibition after 48 hrs by MTT assay; type: functional, cell-based; details: SGC-7901, 48 h
[2] = Cell cycle arrest in human HT1080 cells assessed as accumulation at subG1 phase at 2 times IC50 after 24 hrs by propidium iodide staining-based flow cytometric analysis (reference value: 0.82%); type: functional; details: HT-1080
[3] = Cell cycle arrest in human HT1080 cells assessed as accumulation at G0/G1 phase at 2 times IC50 after 24 hrs by propidium iodide staining-based flow cytometric analysis (reference value: 49.18%); type: functional; details: HT-1080
[4] = Cell cycle arrest in human HT1080 cells assessed as accumulation at G0/G1 phase at 0.5 times IC50 after 48 hrs by propidium iodide staining-based flow cytometric analysis (reference value: 41.60%); type: functional; details: HT-1080
[5] = Cell cycle arrest in human HT1080 cells assessed as accumulation at G2/M phase at IC50 after 24 hrs by propidium iodide staining-based flow cytometric analysis (reference value: 23.71%); type: functional; details: HT-1080
[6] = Cell cycle arrest in human HT1080 cells assessed as accumulation at G0/G1 phase at 2 times IC50 after 48 hrs by propidium iodide staining-based flow cytometric analysis (reference value: 41.60%); type: functional; details: HT-1080
[7] = Cell cycle arrest in human HT1080 cells assessed as accumulation at G0/G1 phase at IC50 after 48 hrs by propidium iodide staining-based flow cytometric analysis (reference value: 41.60%); type: functional; details: HT-1080
[8] = Cell cycle arrest in human HT1080 cells assessed as accumulation at S phase at IC50 after 24 hrs by propidium iodide staining-based flow cytometric analysis (reference value: 21.01%); type: functional; details: HT-1080
[9] = Cell cycle arrest in human HT1080 cells assessed as accumulation at S phase at 2 times IC50 after 24 hrs by propidium iodide staining-based flow cytometric analysis (reference value: 21.01%); type: functional; details: HT-1080
[10] = Cell cycle arrest in human HT1080 cells assessed as accumulation at G2/M phase at IC50 after 48 hrs by propidium iodide staining-based flow cytometric analysis (reference value: 31.39%); type: functional; details: HT-1080
[11] = Cell cycle arrest in human HT1080 cells assessed as accumulation at G0/G1 phase at IC50 after 24 hrs by propidium iodide staining-based flow cytometric analysis (reference value: 49.18%); type: functional; details: HT-1080
[12] = Cell cycle arrest in human HT1080 cells assessed as accumulation at G2/M phase at 0.5 times IC50 after 48 hrs by propidium iodide staining-based flow cytometric analysis (reference value: 31.39%); type: functional; details: HT-1080
[13] = Cell cycle arrest in human HT1080 cells assessed as accumulation at subG1 phase at 2 times IC50 after 48 hrs by propidium iodide staining-based flow cytometric analysis (reference value: 1.86%); type: functional; details: HT-1080
[14] = Cell cycle arrest in human HT1080 cells assessed as accumulation at subG1 phase at 0.5 times IC50 after 24 hrs by propidium iodide staining-based flow cytometric analysis (reference value: 0.82%); type: functional; details: HT-1080
[15] = Cell cycle arrest in human HT1080 cells assessed as accumulation at S phase at 0.5 times IC50 after 24 hrs by propidium iodide staining-based flow cytometric analysis (reference value: 21.01%); type: functional; details: HT-1080
[16] = Cell cycle arrest in human HT1080 cells assessed as accumulation at subG1 phase at IC50 after 24 hrs by propidium iodide staining-based flow cytometric analysis (reference value: 0.82%); type: functional; details: HT-1080
[17] = Cell cycle arrest in human HT1080 cells assessed as accumulation at S phase at IC50 after 48 hrs by propidium iodide staining-based flow cytometric analysis (reference value: 15.11%); type: functional; details: HT-1080
[18] = Cell cycle arrest in human HT1080 cells assessed as accumulation at subG1 phase at 0.5 times IC50 after 48 hrs by propidium iodide staining-based flow cytometric analysis (reference value: 1.86%); type: functional; details: HT-1080
[19] = Cell cycle arrest in human HT1080 cells assessed as accumulation at S phase at 2 times IC50 after 48 hrs by propidium iodide staining-based flow cytometric analysis (reference value: 15.11%); type: functional; details: HT-1080
[20] = Cell cycle arrest in human HT1080 cells assessed as accumulation at S phase at 0.5 times IC50 after 48 hrs by propidium iodide staining-based flow cytometric analysis (reference value: 15.11%); type: functional; details: HT-1080
[21] = Cell cycle arrest in human HT1080 cells assessed as accumulation at G0/G1 phase at 0.5 times IC50 after 24 hrs by propidium iodide staining-based flow cytometric analysis (reference value: 49.18%); type: functional; details: HT-1080
[22] = Cytotoxicity against human HT1080 cells assessed as growth inhibition after 48 hrs by MTT assay; type: functional, cell-based; details: HT-1080, 48 h
[23] = Cell cycle arrest in human HT1080 cells assessed as accumulation at G2/M phase at 0.5 times IC50 after 24 hrs by propidium iodide staining-based flow cytometric analysis (reference value: 23.71%); type: functional; details: HT-1080
[24] = Cell cycle arrest in human HT1080 cells assessed as accumulation at subG1 phase at IC50 after 48 hrs by propidium iodide staining-based flow cytometric analysis (reference value: 1.86%); type: functional; details: HT-1080
[25] = tested on: KB; assay: Cytotoxicity against human KB cells assessed as growth inhibition after 48 hrs by MTT assay; type: functional, cell-based
[26] = Cell cycle arrest in human HT1080 cells assessed as accumulation at G2/M phase at 2 times IC50 after 48 hrs by propidium iodide staining-based flow cytometric analysis (reference value: 31.39%); type: functional; details: HT-1080
[27] = Cell cycle arrest in human HT1080 cells assessed as accumulation at G2/M phase at 2 times IC50 after 24 hrs by propidium iodide staining-based flow cytometric analysis (reference value: 23.71%); type: functional; details: HT-1080
[28] = Cell cycle arrest in human HT1080 cells assessed as accumulation at G0/G1 phase after 24 hrs by propidium iodide staining-based flow cytometric analysis; type: functional; details: HT-1080
[29] = Cell cycle arrest in human HT1080 cells assessed as accumulation at G0/G1 phase after 24 to 48 hrs by propidium iodide staining-based flow cytometric analysis; type: functional; details: HT-1080
[30] = Cell cycle arrest in human HT1080 cells assessed as accumulation at G0/G1 phase at 0.5 to 2 times IC50 by propidium iodide staining-based flow cytometric analysis; type: functional; details: HT-1080, TDE = time-dependent effect

Row | SMILES | IC50 [1] | Activity [2] | Activity [3] | Activity [4] | Activity [5] | Activity [6] | Activity [7] | Activity [8] | Activity [9] | Activity [10] | Activity [11] | Activity [12] | Activity [13] | Activity [14] | Activity [15] | Activity [16] | Activity [17] | Activity [18] | IC50 [22] | IC50 [25] | other results
1 | CC[C@H]1OC(=O)[C@H](C)[C@@H](O[C@H]2C[C@@](C)(OC)[C@@H](O)[C@H](C)O2)[C@H](C)[C@@H](O[C@@H]2O[C@H](C)C[C@H](N(C)CCN(C)[C@H]3C[C@@H](C)O[C@@H](O[C@@H]4[C@@H](C)[C@H](O[C@H]5C[C@@](C)(OC)[C@@H](O)[C@H](C)O5)[C@@H](C)C(=O)O[C@H](CC)[C@@](C)(O)[C@H](O)[C@@H](C)/C(=N\O)[C@H](C)C[C@@]4(C)O)[C@@H]3O)[C@H]2O)[C@](C)(O)C[C@@H](C)/C(=N/O)[C@H](C)[C@@H](O)[C@]1(C)O | 21.7 µM | 8.14% | 66.6% | 80% | 11.5% | 48.7% | 77.3% | 13.9% | 11.1% | 10.8% | 71.2% | 10.1% | 15.7% | 1.41% | 16.5% | 2.01% | 9.35% | 1.34% | 8.6 µM | 6.2 µM | Activity [19]: 14.8%; Activity [20]: 6.94%; Activity [21]: 66%; Activity [23]: 14.4%; Activity [24]: 1.34%; Activity [26]: 17.9%; Activity [27]: 12.5%; Activity [28]: Dose-dependent effect
2 | CC[C@H]1OC(=O)[C@H](C)[C@@H](O[C@H]2C[C@@](C)(OC)[C@@H](O)[C@H](C)O2)[C@H](C)[C@@H](O[C@@H]2O[C@H](C)C[C@H](N(C)CCN(C)[C@H]3C[C@@H](C)O[C@@H](O[C@@H]4[C@@H](C)[C@H](O[C@H]5C[C@@](C)(OC)[C@@H](O)[C@H](C)O5)[C@@H](C)C(=O)O[C@H](CC)[C@@](C)(O)[C@H](O)[C@@H](C)/C(=N\O)[C@H](C)C[C@@]4(C)OC)[C@@H]3O)[C@H]2O)[C@](C)(OC)C[C@@H](C)/C(=N/O)[C@H](C)[C@@H](O)[C@]1(C)O | 7.8 µM | 0.85% | 75.1% | 67.6% | 18.5% | 74.5% | 71.9% | 15.9% | 10.8% | 12.8% | 62.7% | 15.3% | 2.47% | 0.6% | 18.1% | 0.77% | 12.6% | 0.75% | 5.3 µM | 4.4 µM | Activity [29]: Dose-dependent effect; Activity [19]: 11.5%; Activity [20]: 13.7%; Activity [21]: 62%; Activity [23]: 17.4%; Activity [24]: 0.77%; Activity [26]: 10.1%; Activity [30]: tde; Activity [27]: 11.9%
3 | CC[C@H]1OC(=O)[C@H](C)[C@@H](O[C@H]2C[C@@](C)(OC)[C@@H](O)[C@H](C)O2)[C@H](C)[C@@H](O[C@@H]2O[C@H](C)C[C@H](N(C)CCN(C)[C@H]3C[C@@H](C)O[C@@H](O[C@@H]4[C@@H](C)[C@H](O[C@H]5C[C@@](C)(OC)[C@@H](O)[C@H](C)O5)[C@@H](C)C(=O)O[C@H](CC)[C@@](C)(O)[C@H](O)[C@@H](C)/C(=N\OCOCCOC)[C@H](C)C[C@@]4(C)O)[C@@H]3O)[C@H]2O)[C@](C)(O)C[C@@H](C)[C@H](O)[C@H](C)[C@@H](O)[C@]1(C)O | 45.2 µM |  |  |  |  |  |  |  |  |  |  |  |  |  |  |  |  |  | 21.9 µM | 37.8 µM | 
4 | CCCCCCCCO/N=C1/[C@H](C)C[C@@](C)(O)[C@H](O[C@@H]2O[C@H](C)C[C@H](N(C)CCN(C)[C@H]3C[C@@H](C)O[C@@H](O[C@@H]4[C@@H](C)[C@H](O[C@H]5C[C@@](C)(OC)[C@@H](O)[C@H](C)O5)[C@@H](C)C(=O)O[C@H](CC)[C@@](C)(O)[C@H](O)[C@@H](C)/C(=N\OCCCCCCCC)[C@H](C)C[C@@]4(C)O)[C@@H]3O)[C@H]2O)[C@@H](C)[C@H](O[C@H]2C[C@@](C)(OC)[C@@H](O)[C@H](C)O2)[C@@H](C)C(=O)O[C@H](CC)[C@@](C)(O)[C@H](O)[C@H]1C | > 100 µM |  |  |  |  |  |  |  |  |  |  |  |  |  |  |  |  |  | > 100 µM | > 100 µM | 
